Bounds are passed on as bounds.

In this assay the target is human recombinant H-PGDS (Homo sapiens, UniProt O60760). Kind of assay: Fluorescence Intensity h-PGDS TBA Enzyme Assay. To be noted: 1:175,000 human recombinant H-PGDS, highest inhibitor concentration typically 1 μM. The assay is classed as biochemical. Summed up: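 Readout is PGH2 depletion: after a 42 s reaction with 5.0 μM PGH2 and 2.5 mM glutathione (pH 8.0 Tris, 10 min inhibitor preincubation), Fe(II) converts leftover PGH2 to MDA, which forms a fluorescent TBA complex. IC50s come from 11-point, 3-fold duplicate curves, 4-parameter fit.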
Sequence of human recombinant H-PGDS (O60760 whole entry): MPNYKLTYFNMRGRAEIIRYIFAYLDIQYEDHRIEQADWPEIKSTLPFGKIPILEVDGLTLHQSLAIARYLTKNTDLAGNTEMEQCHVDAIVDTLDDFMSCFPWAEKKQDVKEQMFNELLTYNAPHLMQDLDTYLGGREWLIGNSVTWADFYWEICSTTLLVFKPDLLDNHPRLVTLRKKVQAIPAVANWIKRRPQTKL
`O=C(NCCCNc1ccccn1)c1ccc(-c2ccc(F)cc2)nc1` [Example 261, 6-(4-Fluorophenyl)-N-[3-(pyridin-2-ylamino)propyl]nicotinamide]: the IC50 was found to be 91.8 nM.
As for `CC(C)[C@H](N)C(=O)NC(=O)c1ccc(-c2ccc(F)cc2)nc1` [Example 501, 6-(4-Fluorophenyl)-N-L-valylnicotinamide], the figure is ≥ 1000 nM; as for `Cc1c[nH]c(CCNC(=O)c2ccc(-c3cccc(F)c3)nc2)n1` [Example 130, 6-(3-Fluorophenyl)-N-[2-(4-methyl-1H-imidazol-2-yl)ethyl]nicotinamide], 39.4 nM.
`O=C(NC1CCOCC1)c1ccc(-c2ccccc2)nc1` [Example 366, 6-Phenyl-N-(tetrahydro-2H-pyran-4-yl)nicotinamide]: the IC50 turned out to be 7.5 nM.
Turning to `O=C(NCCOCc1nc2ccccc2[nH]1)c1ccc(-c2cccc(F)c2)nc1` [Example 76, N-[2-(1H-Benzimidazol-2-ylmethoxy)ethyl]-6-(3-fluorophenyl)nicotinamide], the IC50 turned out to be 34.7 nM.
As to “N-(3-Fluorobenzyl)-6-(3- methylphenyl)nicotinamide [Example 238]”, the IC50 was found to be 38.9 nM.
On to `O=C(NCC1COc2ccccc2C1)c1ccc(-c2cccc(F)c2)nc1` (stereo not drawn) [Example 528, N-(3,4-Dihydro-2H-chromen-3-ylmethyl)-6-(3-fluorophenyl)nicotinamide], for which the IC50 was determined as 6.45 nM.
As for `COc1cccc(-c2ccc(C(=O)NCC(C)C)cn2)c1` [Example 338, N-isobutyl-6-(3-methoxyphenyl)nicotinamide], the figure is 298 nM; as for `COc1cccc(-c2ccc(C(=O)NCc3ccc(SC)cc3)cn2)c1` [Example 280, 6-(3-Methoxyphenyl)-N-[4-(methylthio)benzyl]nicotinamide], 62.4 nM.
As for `COCCN1CCC(CNC(=O)c2ccc(-c3cccc(F)c3)nc2)CC1` [Example 19, 6-(3-Fluorophenyl)-N-{[1-(2-methoxyethyl)piperidin-4-yl]methyl}nicotinamide], the figure is 117 nM; as for `CC(C)(C)C(=O)CNC(=O)c1ccc(-c2cccc(F)c2)nc1` [Example 108, N-(3,3-Dimethyl-2-oxobutyl)-6-(3-fluorophenyl)nicotinamide], 29.6 nM.
Turning to `O=C(CC(NC(=O)c1ccc(-c2cccc(F)c2)nc1)C1CC1)NCC1CC1` (stereo not drawn) [Example 30, N-{1-Cyclopropyl-3-[(cyclopropylmethyl)amino]-3-oxopropyl}-6-(3-fluorophenyl)nicotinamide], the IC50 was 41 nM.
As for `CCOC(=O)CC(NC(=O)c1ccc(-c2ccccc2)nc1)c1ccccc1` (stereo not drawn) [Example 394, Ethyl 3-phenyl-3-{[(6-phenylpyridin-3-yl)carbonyl]amino}propanoate], the IC50 came out at 24.4 nM.
As for `CCCOCCCNC(=O)c1ccc(-c2cccc(F)c2)nc1` [Example 22, 6-(3-Fluorophenyl)-N-(3-propoxypropyl)nicotinamide], the figure is 13.8 nM.
Take `COC(=O)CNC(=O)[C@H](C)NC(=O)c1ccc(-c2ccccc2)nc1` [Example 348, Methyl N-[(6-phenylpyridin-3-yl)carbonyl]-L-alanylglycinate]: the IC50 is 24.6 nM.
Under `COc1cccc(-c2ccc(C(=O)NCC(C)(C)N3CCOCC3)cn2)c1` [Example 279, 6-(3-Methoxyphenyl)-N-(2-methyl-2-morpholin-4-ylpropyl)nicotinamide] stands 211 nM.
Turning to `Cc1ccc(C#N)c(N2C[C@H](NC(=O)c3ccc(-c4cccc(F)c4)nc3)[C@@H](O)C2)n1` [Example 562, N-[(3S,4S)-1-(3-Cyano-6-methylpyridin-2-yl)-4-hydroxypyrrolidin-3-yl]-6-(3-fluorophenyl)nicotinamide], the IC50 is 4.89 nM.
As for `Cc1cccc(-c2ccc(C(=O)NC(=O)[C@@H](N)C(C)C)cn2)c1` [Example 243, 6-(3-Methylphenyl)-N-L-valylnicotinamide], the IC50 turned out to be 124 nM.

Source of the values: patent US20110306597A1, “Nicotinamide Derivatives” (priority 2008, published 2011).
